Target: Thymidylate synthase (Mus musculus, L1210)
Assay: Inhibitory concentration of compound to inhibit Thymidylate synthase (TS) in L1210 cells at conc. of 200 uM

Row | IC50 | Structure (SMILES)
1 | 520 nM | CCN(Cc1ccc2nc[nH]c(=O)c2c1)c1ccc(C(=O)NC(CCC(=O)O)C(=O)O)cc1 (configuration not stated)
2 | 60 nM | CCN(Cc1ccc2nc(N)[nH]c(=O)c2c1)c1ccc(C(=O)NC(CCC(=O)O)C(=O)O)cc1 (configuration not stated)

— BindingDB's records for doi:10.1021/jm00124a018 (Institute of Cancer Research, 1989)
